# Calls of active or inactive are those of the source.
# Legend:
# [1] = Luminescence Cell-Based Dose Confirmation HTS to Identify Activators of 5'UTR Stem-Loop Driven Alpha-Synuclein mRNA Translation in H4 Neuroglioblastoma Cells. [Related pubchem assays: 1829 (Project Summary), 1814 (Primary HTS)]; format: functional
# [2] = Luminescence Cell-Based Dose Response HTS to Identify Activators of Luciferase Translation or Activity in H4 […] Cells. [Related pubchem assays: 1829 (Project Summary), 1814 (Primary HTS)]; format: functional
# H4 = test: Luminescence Cell-Based Dose Response HTS to Identify Activators of 5'UTR Stem-Loop Driven Prion Protein mRNA Translation in H4 Neuroglioblastoma Cells. [Related pubchem assays: 1829 (Project Summary), 1814 (Primary HTS)]; format: functional; conditions: Homo sapiens
# [3] = target: T1, RNA-binding protein pos-1 (Caenorhabditis elegans, UniProt G5EF15); test: inhibitors of POS-1/mex-3 RNA binding, dose response, biochemical, fluorescence polarization (AID 1964);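 also: purified POS-1 fused to maltose binding protein made in E. coli; potency of compounds blocking POS-1 binding to fluorescent RNA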
# T1 sequence (G5EF15 whole entry): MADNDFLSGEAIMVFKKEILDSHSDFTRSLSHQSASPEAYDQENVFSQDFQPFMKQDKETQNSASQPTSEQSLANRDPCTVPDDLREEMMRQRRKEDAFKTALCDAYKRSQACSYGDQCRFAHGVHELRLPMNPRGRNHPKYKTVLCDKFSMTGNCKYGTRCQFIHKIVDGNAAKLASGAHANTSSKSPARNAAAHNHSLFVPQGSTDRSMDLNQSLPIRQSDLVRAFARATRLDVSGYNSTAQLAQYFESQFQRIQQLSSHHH
# [4] = target: T2, Zinc finger protein mex-5 (Caenorhabditis elegans, UniProt Q9XUB2); test: MEX-5/TCR-2 RNA interaction inhibitors, dose response, biochemical, C. elegans, fluorescence polarization (AID 1960)
# T2 sequence (Q9XUB2 whole entry): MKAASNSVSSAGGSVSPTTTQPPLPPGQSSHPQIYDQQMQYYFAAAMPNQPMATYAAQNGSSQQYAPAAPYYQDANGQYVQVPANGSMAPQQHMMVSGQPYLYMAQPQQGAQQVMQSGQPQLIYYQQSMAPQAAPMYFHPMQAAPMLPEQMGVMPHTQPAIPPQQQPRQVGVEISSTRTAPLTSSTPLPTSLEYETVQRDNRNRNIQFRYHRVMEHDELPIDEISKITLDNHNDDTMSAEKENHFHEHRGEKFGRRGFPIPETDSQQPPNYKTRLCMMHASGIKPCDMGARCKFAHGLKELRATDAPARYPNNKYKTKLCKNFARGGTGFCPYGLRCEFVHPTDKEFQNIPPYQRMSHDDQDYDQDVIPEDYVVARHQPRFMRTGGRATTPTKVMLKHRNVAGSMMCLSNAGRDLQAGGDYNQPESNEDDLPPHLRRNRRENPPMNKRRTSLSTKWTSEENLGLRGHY
# Large T antigen = Large T antigen (Simian virus 40, UniProt P03070); format: functional, Betapolyomavirus macacae;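 also: Confirmatory-stage PubChem screen for compounds that inhibit SV40 T antigen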
# [5] = target: Luciferin 4-monooxygenase (Photinus pyralis, UniProt P08659); test: firefly luciferase enzyme inhibitors, dose response, biochemical, luminescence (AID 1891)
# [6] = Luminescence Cell-Based Dose Confirmation HTS to Identify Inhibitors of Platelet Dense Granule Release. [Related pubchem assays: 1663 (Primary HTS), 1678 (Summary of Project)]; format: functional
# Cytochrome P450 2C19 = Cytochrome P450 2C19 (Homo sapiens, UniProt P33261); test: Cytochrome panel assay with activity outcomes. Panel member name: p450-cyp2c19 Compounds with AC50 equal or less than 10 uM are considered active; format: functional
# Cytochrome P450 1A2 = target: T3, Cytochrome P450 1A2 (Homo sapiens, UniProt P05177);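 also: PubChem cytochrome P450 panel assay, CYP1A2 panel member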
# T3 sequence (P05177 whole entry): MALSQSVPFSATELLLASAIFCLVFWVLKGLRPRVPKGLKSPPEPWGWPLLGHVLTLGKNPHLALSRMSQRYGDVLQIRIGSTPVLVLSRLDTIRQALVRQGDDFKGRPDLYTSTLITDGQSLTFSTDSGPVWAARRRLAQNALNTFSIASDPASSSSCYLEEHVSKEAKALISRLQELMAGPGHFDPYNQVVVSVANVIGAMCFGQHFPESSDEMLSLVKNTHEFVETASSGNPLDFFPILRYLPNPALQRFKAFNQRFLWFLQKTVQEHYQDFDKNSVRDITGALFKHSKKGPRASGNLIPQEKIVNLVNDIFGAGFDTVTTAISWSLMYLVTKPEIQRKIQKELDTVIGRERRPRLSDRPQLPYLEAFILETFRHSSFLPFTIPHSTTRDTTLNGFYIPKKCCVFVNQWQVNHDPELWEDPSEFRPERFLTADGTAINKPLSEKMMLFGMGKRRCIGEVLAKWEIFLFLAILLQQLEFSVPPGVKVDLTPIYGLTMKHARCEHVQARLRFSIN
# [7] = inhibitors of intracellular T. cruzi replication, confirmation, NIH3T3 host cells, beta-gal luminescence (AID 2044); format: functional, cell-based;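 also: intracellular parasites grown in NIH/3T3 mouse fibroblasts as host cells; luminescent beta-galactosidase reporter signal from transgenic T. cruzi replicating inside host cells; inhibitors lower the luminescence signal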
# [8] = cytotoxicity toward NIH3T3 fibroblasts, dose response, counter-screen, cell-based, ATP luminescence, mouse fibroblasts (AID 2010); format: functional;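 also: cells exposed to compound for about 90 hours before reading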
# [9] = HeLa cell cytotoxicity, dose response, cytotoxicity control for MgcRacGAP inhibitor project (AID 624300); format: functional
# [10] = target: T4, Rac GTPase-activating protein 1 (Homo sapiens, UniProt Q9H0H5); test: MgcRacGAP GTPase-activating activity inhibitors, confirmation, biochemical, ADP Hunter fluorescence, primary and confirmatory (AID 624330); format: functional
# T4 sequence (Q9H0H5 whole entry): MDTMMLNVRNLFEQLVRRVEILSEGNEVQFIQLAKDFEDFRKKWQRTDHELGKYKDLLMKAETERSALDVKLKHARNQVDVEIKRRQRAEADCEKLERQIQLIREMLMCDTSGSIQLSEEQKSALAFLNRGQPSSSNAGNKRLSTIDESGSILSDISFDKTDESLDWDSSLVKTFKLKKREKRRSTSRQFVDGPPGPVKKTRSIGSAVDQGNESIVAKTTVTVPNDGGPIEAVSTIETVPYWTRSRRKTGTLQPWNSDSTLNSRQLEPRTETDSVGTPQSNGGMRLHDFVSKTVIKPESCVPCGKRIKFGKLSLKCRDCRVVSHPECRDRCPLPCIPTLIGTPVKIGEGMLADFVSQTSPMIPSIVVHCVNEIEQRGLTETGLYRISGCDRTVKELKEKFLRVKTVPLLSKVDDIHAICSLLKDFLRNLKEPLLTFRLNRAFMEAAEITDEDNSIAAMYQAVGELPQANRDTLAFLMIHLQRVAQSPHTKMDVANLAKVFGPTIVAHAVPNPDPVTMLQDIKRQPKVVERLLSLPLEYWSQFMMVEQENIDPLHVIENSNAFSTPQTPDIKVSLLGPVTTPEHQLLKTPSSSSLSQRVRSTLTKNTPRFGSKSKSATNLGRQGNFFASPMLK
# Cytochrome P450 2C9 = Cytochrome P450 2C9 (Homo sapiens, UniProt P11712)
# Sequence of Cytochrome P450 2C9 (P11712 whole entry): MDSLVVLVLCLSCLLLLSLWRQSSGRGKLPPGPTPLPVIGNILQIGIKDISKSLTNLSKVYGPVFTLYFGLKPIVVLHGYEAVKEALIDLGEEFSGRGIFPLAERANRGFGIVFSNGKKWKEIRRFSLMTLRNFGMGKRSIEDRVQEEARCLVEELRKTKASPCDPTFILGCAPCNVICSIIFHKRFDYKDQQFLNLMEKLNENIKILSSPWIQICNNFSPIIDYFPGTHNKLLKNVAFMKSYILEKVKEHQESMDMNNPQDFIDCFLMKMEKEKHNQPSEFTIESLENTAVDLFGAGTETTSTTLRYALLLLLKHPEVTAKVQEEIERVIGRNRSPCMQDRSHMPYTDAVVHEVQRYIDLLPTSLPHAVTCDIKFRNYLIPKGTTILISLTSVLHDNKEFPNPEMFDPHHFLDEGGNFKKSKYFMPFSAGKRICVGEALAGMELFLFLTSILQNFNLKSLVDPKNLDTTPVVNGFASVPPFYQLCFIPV
# Sequence of Luciferin 4-monooxygenase (P08659 whole entry): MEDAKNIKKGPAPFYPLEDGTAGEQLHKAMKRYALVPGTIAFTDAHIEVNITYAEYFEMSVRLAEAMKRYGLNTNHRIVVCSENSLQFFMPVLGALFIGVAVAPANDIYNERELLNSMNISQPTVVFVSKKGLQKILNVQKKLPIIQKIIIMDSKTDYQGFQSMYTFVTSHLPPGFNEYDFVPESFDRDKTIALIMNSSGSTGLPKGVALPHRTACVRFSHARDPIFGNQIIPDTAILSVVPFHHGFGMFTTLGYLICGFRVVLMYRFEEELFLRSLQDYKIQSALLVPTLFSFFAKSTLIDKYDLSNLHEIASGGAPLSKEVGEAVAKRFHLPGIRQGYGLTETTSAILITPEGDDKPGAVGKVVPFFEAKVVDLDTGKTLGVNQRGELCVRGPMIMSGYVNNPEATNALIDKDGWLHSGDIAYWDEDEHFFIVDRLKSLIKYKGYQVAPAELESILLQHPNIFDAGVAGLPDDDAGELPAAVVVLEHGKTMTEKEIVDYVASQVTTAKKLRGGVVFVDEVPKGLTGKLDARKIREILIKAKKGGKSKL
# Sequence of Large T antigen (P03070 whole entry): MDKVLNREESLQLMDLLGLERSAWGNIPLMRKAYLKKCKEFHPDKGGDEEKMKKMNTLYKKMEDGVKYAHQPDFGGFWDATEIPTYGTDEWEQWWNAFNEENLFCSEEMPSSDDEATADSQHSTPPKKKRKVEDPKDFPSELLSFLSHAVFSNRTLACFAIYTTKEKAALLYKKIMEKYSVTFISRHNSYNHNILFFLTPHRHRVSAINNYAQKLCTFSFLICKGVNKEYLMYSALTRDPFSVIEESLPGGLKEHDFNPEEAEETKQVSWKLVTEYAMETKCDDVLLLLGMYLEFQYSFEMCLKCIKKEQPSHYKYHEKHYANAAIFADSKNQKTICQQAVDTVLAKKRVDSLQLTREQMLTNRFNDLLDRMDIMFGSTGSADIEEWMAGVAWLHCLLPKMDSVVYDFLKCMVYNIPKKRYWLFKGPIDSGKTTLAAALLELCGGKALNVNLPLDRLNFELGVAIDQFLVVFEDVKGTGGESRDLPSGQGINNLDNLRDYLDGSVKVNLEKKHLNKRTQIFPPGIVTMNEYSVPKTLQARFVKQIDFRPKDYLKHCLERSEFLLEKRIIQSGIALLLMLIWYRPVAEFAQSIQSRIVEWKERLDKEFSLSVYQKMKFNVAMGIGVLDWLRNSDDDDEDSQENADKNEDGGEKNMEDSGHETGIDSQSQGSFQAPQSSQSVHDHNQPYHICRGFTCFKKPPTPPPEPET
# Sequence of Cytochrome P450 2C19 (P33261 whole entry): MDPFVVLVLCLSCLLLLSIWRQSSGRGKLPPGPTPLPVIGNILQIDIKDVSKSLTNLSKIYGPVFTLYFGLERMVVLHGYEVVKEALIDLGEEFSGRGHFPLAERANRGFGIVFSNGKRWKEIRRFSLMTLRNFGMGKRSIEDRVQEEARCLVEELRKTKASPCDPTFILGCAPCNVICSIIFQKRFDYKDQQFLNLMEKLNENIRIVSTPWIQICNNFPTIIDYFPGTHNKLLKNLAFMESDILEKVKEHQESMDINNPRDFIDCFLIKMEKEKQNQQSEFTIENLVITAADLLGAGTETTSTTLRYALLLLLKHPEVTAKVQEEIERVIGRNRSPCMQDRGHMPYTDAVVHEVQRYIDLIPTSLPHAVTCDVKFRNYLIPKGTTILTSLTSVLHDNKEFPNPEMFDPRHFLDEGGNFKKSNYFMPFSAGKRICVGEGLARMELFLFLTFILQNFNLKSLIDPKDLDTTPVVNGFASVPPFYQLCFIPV
smiles,measurement,setting,value
CCC1CCCCN1CCCNC(=O)Cn1c2ccccc2c2nc(=O)cc(C)n21 (stereo not drawn),EC50,[1],> 120 µM (not active)
same,EC50,[2],> 120 µM (not active)
same,EC50,H4,> 120 µM (not active)
O=C(OCCc1ccccc1)c1cc(O)c(O)c(O)c1,EC50,[3],> 300 µM (not active)
same,EC50,[4],29.6 µM (active)
same,IC50,Large T antigen,> 100 µM (active)
Cc1ccc(-c2nc3ncccn3c2NC(=O)C2CC2)cc1,EC50,[5],> 112 µM (not active)
same,EC50,[6],> 112 µM (not active)
same,AC50,Cytochrome P450 2C19,inconclusive
same,AC50,Cytochrome P450 1A2,15.8 µM (inconclusive)
COc1ccc(C(=O)COC(=O)c2cc(O)nc3ccccc23)c(OC)c1,EC50,[1],8.87 µM (active)
same,EC50,[2],54 µM (active)
same,EC50,H4,20.7 µM (active)
COc1cccc(-n2cnc3sc(-c4ccccc4)cc3c2=O)c1,EC50,[1],0.185 µM (active)
same,EC50,[2],0.124 µM (active)
same,EC50,H4,0.136 µM (active)
Cc1ccc(C(=O)C2CCN(CC(=O)Nc3ccc4c(c3)OCCO4)CC2)cc1,EC50,[5],> 112 µM (not active)
same,EC50,[6],> 112 µM (not active)
O=C(NC1CCCC1)c1csc2c1CCCC2,EC50,[5],> 112 µM (not active)
same,EC50,[6],> 112 µM (not active)
COc1ccc(CNCCc2ccc(Cl)cc2)c(OC)c1OC,EC50,[7],0.462 µM (active)
same,EC50,[8],> 60 µM (not active)
same,CC50,[9],100 µM (active)
same,IC50,[10],259 µM (active)
COc1ccc(N2CCC(CN=C(S)Nc3ccc(C)cc3C)C2)cc1 (stereo not drawn),IC50,Large T antigen,11 µM (active)
COc1ccc(-c2nc3cnc(N4CCOCC4)nc3n(C[C@H]3CCCO3)c2=O)cc1,AC50,Cytochrome P450 1A2,5.01 µM (inconclusive)
same,AC50,Cytochrome P450 2C9,inconclusive
CC1CN=C(Nc2ccc(N(C)C)cc2)S1 (stereo not drawn),IC50,Large T antigen,9.27 µM (active)
CC(=O)C1=C(C)NC(SCC(=O)c2ccccc2)=C(C#N)C1c1ccco1 (stereo not drawn),EC50,[1],11 µM (active)
same,EC50,[2],26.5 µM (active)
same,EC50,H4,19.5 µM (active)
NS(=O)(=O)c1cc(Br)c(/N=N\c2ccc(O)c3ncccc23)c(Br)c1,AC50,Cytochrome P450 1A2,1.26 µM (inconclusive)
same,AC50,Cytochrome P450 2C9,inconclusive
CC(=O)NS(=O)(=O)c1ccc(/N=c2\ssc3c2-c2cc(C)ccc2NC3(C)C)cc1,IC50,Large T antigen,> 100 µM (active)
Cc1sc(N/N=C/C=C/c2ccccc2)nc1-c1ccccc1,EC50,[7],2.67 µM (active)
same,EC50,[8],13.8 µM (active)
same,AC50,Cytochrome P450 1A2,3.55 µM (inconclusive)
same,AC50,Cytochrome P450 2C9,inconclusive
O=C(N/N=C/C(Br)=C/c1ccccc1)C1CC1,EC50,[1],18.7 µM (active)
same,EC50,[2],60.3 µM (active)
same,EC50,H4,15.8 µM (active)
c1ccc2[nH]c(-c3ccc4c(c3)OCO4)nc2c1,EC50,[5],1.16 µM (active)
same,EC50,[6],6.52 µM (active)
